Reference: patent US20240360146A1, “BRUTON'S TYROSINE KINASE AND MUTANT DEGRADER, COMPOSITION AND APPLICATION THEREOF” (HANGZHOU HEALZEN THERAPEUTICS CO., LTD., priority 2021, published 2024)

Molecular target: T1, BTK (Homo sapiens, UniProt Q06187)
T1 construct: endogenous in cells; host or cells: Mino cells
Experiment: BTK degradation activity test in Mino cells
Assay type: cell-based
Details: 16 h incubation, Western blot or Elisa
Summary of the method: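 DC50 derived by curve fitting of BTK degradation rates versus untreated control across compound concentrations. Mino cells were exposed for 16 h; BTK levels in lysates, normalised via BCA protein, measured by Western blot or ELISA.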

T1 sequence (Q06187 whole entry): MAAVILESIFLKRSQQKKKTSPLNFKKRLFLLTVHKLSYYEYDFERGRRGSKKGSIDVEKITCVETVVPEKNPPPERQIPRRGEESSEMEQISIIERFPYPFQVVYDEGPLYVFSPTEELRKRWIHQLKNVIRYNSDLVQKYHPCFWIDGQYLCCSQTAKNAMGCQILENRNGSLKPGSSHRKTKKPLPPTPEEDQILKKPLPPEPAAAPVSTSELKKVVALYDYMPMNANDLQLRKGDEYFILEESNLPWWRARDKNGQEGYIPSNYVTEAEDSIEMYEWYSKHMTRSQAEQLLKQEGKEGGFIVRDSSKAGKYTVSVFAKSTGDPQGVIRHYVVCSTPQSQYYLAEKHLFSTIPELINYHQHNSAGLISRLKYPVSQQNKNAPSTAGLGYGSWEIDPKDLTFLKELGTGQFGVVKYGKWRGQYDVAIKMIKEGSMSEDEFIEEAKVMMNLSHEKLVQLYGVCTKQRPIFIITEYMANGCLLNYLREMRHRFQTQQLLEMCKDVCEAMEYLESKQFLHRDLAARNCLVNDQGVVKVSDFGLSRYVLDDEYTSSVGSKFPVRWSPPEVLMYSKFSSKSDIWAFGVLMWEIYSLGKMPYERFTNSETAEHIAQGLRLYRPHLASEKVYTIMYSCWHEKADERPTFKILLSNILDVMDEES

Compound	DC50
CN1CCN(C2CC3CCC2N(c2nnc(C(N)=O)c(Nc4ccc(C5CCN(CC6CCN(c7ccc8c(c7)C(=O)N(C7CCC(=O)NC7=O)C8=O)CC6)CC5)cc4)n2)C3)C1=O (stereo not shown) [Compound 075, 5-((4-(1-((1-(2-(2,6-dioxopiperidin-3-yl)-1,3-dioxoisoindol-5-yl)piperidin-4-yl)methyl)piperidin-4-yl)phenyl)amino)-3-(6-(3-methyl-2-oxoimidazolin-1-yl)-2-azabicyclo[2.2.2]octan-2-yl)-1,2,4-triazin-6-carboxamide]	> 1 nM
CN1C(=O)N(C2CCCN(c3cnc(C(N)=O)c(Nc4ccc(C5(C)CCN(C6CN(c7ccc8c(c7)C(=O)N(C7CCC(=O)NC7=O)C8=O)C6)CC5)cc4)n3)C2)C2CCCCC21 (stereo not shown) [Compound 009, 3-((4-(1-(1-(2-(2,6-dioxopiperidin-3-yl)-1,3-dioxoisoindol-5-yl)azetidin-3-yl)-4-methylpiperidin-4-yl)phenyl)amino)-5-(3-(3-methyl-2-oxooctahydro-1H-benzo[d]imidazol-1-yl)piperidin-1-yl)pyrazin-2-carboxamide]	< 1 nM
CN1CCN(C2CC3CC2N(c2nnc(C(N)=O)c(Nc4ccc(N5CCN(CC6CCN(c7ccc8c(c7)C(=O)N(C7CCC(=O)NC7=O)C8=O)CC6)CC5)cc4)n2)C3)C1=O (stereo not shown) [Compound 108, 5-((4-(4-((1-(2-(2,6-dioxopiperidin-3-yl)-1,3-dioxoisoindol-5-yl)piperidin-4-yl)methyl)piperazin-1-yl)phenyl)amino)-3-(6-(3-methyl-2-oxoimidazolin-1-yl)-2-azabicyclo[2.2.1]heptan-2-yl)-1,2,4-triazin-6-carboxamide]	> 1 nM
Cc1cc(N2CCC(CN3CCC(c4ccc(Nc5nc(N6CCC[C@@H](N7CCN(C)C7=O)C6)nnc5C(N)=O)cc4CO)CC3)CC2)ccc1N1CCC(=O)NC1=O [Compound 237, (R)-5-((4-(1-((1-(4-(2,4-dioxotetrahydropyrimidin-1(2H)-yl)-3-methylphenyl)piperidin-4-yl)methyl)piperidin-4-yl)-3-(hydroxymethyl)phenyl)amino)-3-(3-(3-methyl-2-oxoimidazolidin-1-yl)piperidin-1-yl)-1,2,4-triazin-6-carboxamide]	< 1 nM
CN1CCN(C2CCCN(c3ncc(C(N)=O)c(Nc4ccc(C5(C)CCN(CC6CCN(c7ccc8c(c7)C(=O)N(C7CCC(=O)NC7=O)C8=O)C6)CC5)cc4)n3)C2)C1=O (stereo not shown) [Compound 036, 4-((4-(1-((1-(2-(2,6-dioxopiperidin-3-yl)-1,3-dioxoisoindolin-5-yl)pyrrolidin-3-yl)methyl)-4-methylpiperidin-4-yl)phenyl)amino)-2-(3-(3-methyl-2-oxoimidazolin-1-yl)piperidin-1-yl)pyrimidin-5-carboxamide]	< 1 nM
CN1CCN(C2CC3CCC2N(c2cnc(C(N)=O)c(Nc4ccc(C5CCN(C6CN(c7ccc8c(c7)C(=O)N(C7CCC(=O)NC7=O)C8=O)C6)CC5)cc4)n2)C3)C1=O (stereo not shown) [Compound 050, 3-((4-(1-(1-(2-(2,6-dioxopiperidin-3-yl)-1,3-dioxoisoindolin-5-yl)azetidin-3-yl)piperidin-4-yl)phenyl)amino)-5-(-6-(3-methyl-2-oxoimidazolin-1-yl)-2-azabicyclo[2.2.2]octan-2-yl)pyrazin-2-carboxamide]	< 1 nM
CC1(c2ccc(Nc3nc(N4CCCC(N5CCN(c6ccccc6)C5=O)C4)nnc3C(N)=O)cc2)CCN(C2CN(c3ccc4c(c3)C(=O)N(C3CCC(=O)NC3=O)C4=O)C2)CC1 (stereo not shown) [Compound 092, 5-((4-(1-(1-(2-(2,6-dioxopiperidin-3-yl)-1,3-dioxoisoindol-5-yl)azetidine-3-yl)-4-methylpiperidin-4-yl)phenyl)amino)-3-(3-(2-oxo-3-phenylimidazolin-1-yl)piperidin-1-yl)-1,2,4-triazin-6-carboxamide]	> 1 nM
CN1CCN([C@@H]2CCCN(c3nnc(C(N)=O)c(Nc4ccc(N5CCN(C[C@@H]6CCN(c7ccc8c(c7)C(=O)N(C7CCC(=O)NC7=O)C8=O)C6)CC5)c(Cl)c4)n3)C2)C1=O (stereo partly drawn) [Compound 159, 5-((3-chloro-4-(4-(((3S)-1-(2-(2,6-dioxopiperidin-3-yl)-1,3-dioxoisoindolin-5-yl)pyrrolidin-3-yl)methyl)piperazin-1-yl)phenyl)amino)-3-((R)-3-(3-methyl-2-oxoimidazolidin-1-yl)piperidin-1-yl)-1,2,4-triazin-6-carboxamide]	< 1 nM
NC(=O)c1nnc(N2CCCC(N3CCN(c4ccccc4)C3=O)C2)nc1Nc1ccc(C2CCN(CC3CCN(c4ccc5c(c4)C(=O)N(C4CCC(=O)NC4=O)C5=O)C3)CC2)cc1 (stereo not shown) [Compound 089, 5-((4-(1-((1-(2-(2,6-dioxopiperidin-3-yl)-1,3-dioxoisoindol-5-yl)pyrrolidin-3-yl)methyl)piperidin-4-yl)phenyl)amino)-3-(3-(2-oxo-3-phenylimidazolin-1-yl)piperidin-1-yl)-1,2,4-triazin-6-carboxamide]	< 1 nM
NC(=O)c1nnc(N2CCCC(N3CCN(c4ccccc4)C3=O)C2)nc1Nc1ccc2c(c1)CCN(C1CN(c3ccc4c(c3)C(=O)N(C3CCC(=O)NC3=O)C4=O)C1)C2 (stereo not shown) [Compound 093]	> 1 nM
CN1CCN(C2CCCN(c3nnc(C(N)=O)c(Nc4ccc(C5CCN(CC6CCN(c7ccc8c(c7)C(=O)N(C7CCC(=O)NC7=O)C8=O)CC6)CC5)cc4)n3)C2)C1=O (stereo not shown) [Compound 053, 5-((4-(1-((1-(2-(2,6-dioxopiperidin-3-yl)-1,3-dioxoisoindol-5-yl)piperidin-4-yl)methyl)piperidin-4-yl)phenyl)amino)-3-(3-(3-methyl-2-oxoimidazolin-1-yl)piperidin-1-yl)-1,2,4-triazin-6-carboxamide]	< 1 nM
CN1CCN([C@@H]2CCCN(c3nnc(C(N)=O)c(Nc4ccc(N5CCN(CC6CCN(c7ccc(NC8CCC(=O)NC8=O)c8c7OCO8)C6)CC5)c(F)c4)n3)C2)C1=O (stereo partly drawn) [Compound 208, 5-((4-(4-((1-(7-((2,6-dioxopiperidin-3-yl)amino)benzo[d][1,3]dioxacyclopent-4-yl)pyrrolidin-3-yl)methyl)piperazin-1-yl)-3-fluorophenyl)amino)-3-((R)-3-(3-methyl-2-oxoimidazolidin-1-yl)piperidin-1-yl)-1,2,4-triazin-6-carboxamide]	< 1 nM
CN1CCN(C2CCCN(c3nnc(C(N)=O)c(Nc4ccc(C5CCN(CC6CCN(c7ccc8c(c7)C(=O)N(C7CCC(=O)NC7=O)C8=O)C6)CC5)cc4)n3)C2)C1=O (stereo not shown) [Compound 076, 5-((4-(1-((1-(2-(2,6-dioxopiperidin-3-yl)-1,3-dioxoisooctyl-5-yl)pyrrolidin-3-yl)methyl)piperidin-4-yl)phenyl)amino)-3-(3-(3-methyl-2-oxoimidazolin-1-yl)piperidin-1-yl)-1,2,4-triazin-6-carboxamide]	< 1 nM
NC(=O)c1ncc(N2CCCC(N3CCN(C4COC4)C3=O)C2)nc1Nc1ccc(N2CCN(C3CN(c4ccc5c(c4)C(=O)N(C4CCC(=O)NC4=O)C5=O)C3)CC2)cc1 (stereo not shown) [Compound 015, 3-((4-(4-(1-(2-(2,6-dioxopiperidin-3-yl)-1,3-dioxoisoindol-5-yl)azetidin-3-yl)piperazin-1-yl)phenyl)amino)-5-(3-(3-(oxetan-3-yl)-2-oxoimidazolin-1-yl)piperidin-1-yl) pyrazin-2-carboxamide]	< 1 nM
CN1CCN([C@@H]2CCCN(c3nnc(C(N)=O)c(Nc4ccc(N5CCN(CC6CCN(c7ccc(N8CCC(=O)NC8=O)c(C8CC8)c7)CC6)CC5)c(F)c4)n3)C2)C1=O [Compound 194, (R)-5-((4-(4-((1-(3-cyclopropyl-4-(2,4-dioxotetrahydropyrimidin-1(2H)-yl)phenyl)piperidin-4-yl)methyl)piperazin-1-yl)-3-fluorophenyl)amino)-3-(3-(3-methyl-2-oxoimidazolidin-1-yl)piperidin-1-yl)-1,2,4-triazin-6-carboxamide]	< 1 nM
CN1CCN([C@@H]2CCCN(c3nnc(C(N)=O)c(Nc4ccc(N5CCN(CC#Cc6ccc(C(=O)NC7CCC(=O)NC7=O)s6)CC5)c(F)c4)n3)C2)C1=O (stereo partly drawn) [Compound 230, 5-((4-(4-(3-(5-((2,6-dioxopiperidin-3-yl)carbamoyl)thiophen-2-yl)propan-2-yn-1-yl)piperazin-1-yl)-3-fluorophenyl)amino)-3-((R)-3-(3-methyl-2-oxoimidazolidin-1-yl)piperidin-1-yl)-1,2,4-triazin-6-carboxamide]	< 1 nM
CN1CCN(C2CC3CC2N(c2nnc(C(N)=O)c(Nc4ccc(C5CCN(CC6CCN(c7ccc8c(c7)C(=O)N(C7CCC(=O)NC7=O)C8=O)C6)CC5)cc4)n2)C3)C1=O (stereo not shown) [Compound 102, 5-((4-(1-((1-(2-(2,6-dioxopiperidin-3-yl)-1,3-dioxoisoindol-5-yl)pyrrolidin-3-yl)methyl)piperidin-4-yl)phenyl)amino)-3-(6-(3-methyl-2-oxoimidazolin-1-yl)-2-azabicyclo[2.2.1]heptan-2-yl)-1,2,4-triazin-6-carboxamide]	< 1 nM
CN1CCN([C@@H]2CCCN(c3nnc(C(N)=O)c(Nc4ccc(N5CCN(C[C@H]6CCN(c7ccc8c(c7)C(=O)N(C7CCC(=O)NC7=O)C8=O)C6)CC5)c(Cl)c4)n3)C2)C1=O (stereo partly drawn) [Compound 160, 5-((3-chloro-4-(4-(((3R)-1-(2-(2,6-dioxopiperidin-3-yl)-1,3-dioxoisoindolin-5-yl)pyrrolidin-3-yl)methyl)piperazin-1-yl)phenyl)amino)-3-((R)-3-(3-methyl-2-oxoimidazolidin-1-yl)piperidin-1-yl)-1,2,4-triazin-6-carboxamide]	< 1 nM
CN1CCN([C@@H]2CCCN(c3nnc(C(N)=O)c(Nc4ccc(N5CCN(CC6CCN(c7ccc(NC8CCC(=O)NC8=O)c8c7OCCO8)CC6)CC5)c(F)c4)n3)C2)C1=O (stereo partly drawn) [Compound 211, 5-((4-(4-((1-(8-((2,6-dioxopiperidin-3-yl)amino)-2,3-dihydrobenzo[b][1,4]dioxan-5-yl)piperidin-4-yl)methyl)piperazin-1-yl)-3-fluorophenyl)amino)-3-((R)-3-(3-methyl-2-oxoimidazolidin-1-yl)piperidin-1-yl)-1,2,4-triazin-6-carboxamide]	< 1 nM
